Drawing on patent publication US20240317686A1, “RORyT MODULATOR, AND PREPARATION METHOD THEREFOR AND APPLICATION THEREOF” (SHANGHAI PHARMACEUTICALS HOLDING CO., LTD., priority 2020, published 2024), this text covers IC50 for 32 compounds.

In the assay the target is T1, RORγt (Homo sapiens, UniProt P51449).
T1 construct: Prepare 4×RORgt-LBD in 1× buffer
T1 sequence (P51449 269-508 limits assumed): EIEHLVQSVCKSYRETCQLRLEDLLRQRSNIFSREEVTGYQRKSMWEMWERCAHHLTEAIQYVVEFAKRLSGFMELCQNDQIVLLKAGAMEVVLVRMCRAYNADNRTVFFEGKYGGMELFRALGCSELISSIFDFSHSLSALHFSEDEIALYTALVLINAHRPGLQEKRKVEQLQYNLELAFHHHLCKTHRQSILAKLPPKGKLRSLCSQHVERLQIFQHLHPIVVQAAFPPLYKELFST
The assay can be described thus: Fluorescence resonance energy transfer (FRET) assay of inhibitory activity on RORγt. It is filed as biochemical. The settings on record: RORgt-LBD GST with SRC peptide. As for the experimental part: Fluorescence resonance energy transfer (FRET) experiment was performed to assay the inhibitory activity of the compound of the present invention on RORγt.
1) Preparation of DMSO stock solutions of the compounds: All compounds were dissolved in DMSO to prepare 10 mM stock solutions.
2) Compound storage: After the compound was dissolved in DMSO, the solution can be stored in a desiccator at room temperature for three months. For long-term storage, the solution should be put in a −20° C. refrigerator.
3) Preparation of working solution: • a) Positive control compound AZD0284: Starting from 500 µM, the solution was diluted serially by 3-folds with DMSO to obtain a 10-concentration gradient, each concentration with 3 replicate wells. 2 wells were pipetted. The gradiently diluted compound was diluted in a reaction buffer to obtain a 4× working solution (starting from 40 μM, diluted gradiently by 3-folds) of the positive control compound. • b) Compounds to be tested: Starting from 500 μM, the solution was diluted serially by 3-folds with DMSO to obtain a 10-concentration gradient, each concentration with 3 replicate wells. 2 wells were pipetted. The gradiently diluted compound was diluted in a reaction buffer to obtain a 4× working solution ([…], diluted gradiently by 3-folds) of the compounds to be tested. • c) Prepare a 4× negative control (8% DMSO). • d) Centrifuge the plate at 1000 rpm for 1 min.
1) Prepare 4× serially diluted compounds in 1× buffer.
2) Add 5 μl of the 4× serially diluted compound (prepared in step 1) to a 384 assay plate (784075, Greiner).
3) Prepare 4×RORgt-LBD in 1× buffer.
4) Add 5 μl of the 4×RORgt-LBD (prepared in step 3) to the 384 assay plate (prepared in step 2).
5) Incubate the assay plate for 15 min at room temperature, protected from light.
6) Prepare a 2× mixture of SRC, anti-GST Eu and streptavidin-d2 in 1× […].
7) Add 10 μl of the 2× mixture (prepared in step 6) to the 384 assay plate (prepared in step 4).
8) Centrifuge the 384 assay plates at 1000 g for 1 min.
9) Incubate for 3 h at room temperature, protected from light.
10) Read the plate at wavelengths of 665 nm and 615 nm on an Envision 2104 plate reader.
Relative ratio (RR): Calculate the relative ratio (response value at 665 nm/response value at 615 nm-response value in blank background) of each well.
Inhibition rate %=[1−(fluorescence detection value of the compound−fluorescence detection average of the positive compound)/(fluorescence detection average of the negative control−fluorescence detection average of the positive compound)]×100
Calculate the IC50 and dose-response curve of the compound: The IC50 and dose-response curve of the compound were obtained via Graphpad 8.0 by calculating the inhibition rate of the compound and the log value of the compound concentration.

As for `CCS(=O)(=O)c1ccc(CC(=O)Nc2ccc(C(=O)C(F)(F)c3ccc(Cl)cc3)nc2)cc1` [Compound I-39, N-(6-(2-(4-chlorophenyl)-2,2-difluoroacetyl)pyridin-3-yl)-2-(4-(ethylsulfonyl)phenyl)acetamide], the IC50 was greater than 1000 nM. Next, `CCS(=O)(=O)c1ccc(CC(=O)Nc2ccc(C(=O)C(C)(C)c3cc(C#N)ccn3)nc2)cc1` [Compound I-40, N-(6-(2-(4-cyanopyridin-2-yl)-2-methylpropionyl)pyridin-3-yl)-2-(4-(ethylsulfonyl)phenyl)acetamide]: 1 to 10 nM; `CCS(=O)(=O)c1ccc(CC(=O)Nc2ccc(C(=O)C(C)(C)c3ncc(F)cc3F)nc2)cc1` [Compound I-41, N-[6-[2-(3,5-difluoro-2-pyridyl)-2-methyl-propionyl]-3-pyridyl]-2-(4-ethylsulfonylphenyl)acetamide]: 1 to 10 nM; `CCn1cc(C(C)(C)C(=O)c2ccc(NC(=O)Cc3ccc(S(=O)(=O)CC)cc3)cn2)cn1` [Compound I-42, N-(6-(2-(1-ethyl-1H-pyrazol-4-yl)-2-methylpropionyl)pyridin-3-yl)-2-(4-(ethylsulfonyl)phenyl) acetamide]: 10 to 50 nM.

Take `[2H]C([2H])([2H])n1cc(C(C)(C)C(=O)c2ccc(NC(=O)Cc3ccc(S(=O)(=O)CC)cc3)cn2)cn1` [Compound I-43, 2-(4-(ethylsulfonyl)phenyl)-N-(6-(2-methyl-2-(1-(methyl-D3)-1H-pyrazol-4-yl)propionyl)pyridin-3-yl)acetamide]: the IC50 fell in the range of 10 to 50 nM. `CCS(=O)(=O)c1ccc(CC(=O)Nc2ccc(C(=O)C(C)(C)c3ncccc3F)nc2)cc1` [Compound I-44, 2-(4-(ethylsulfonyl)phenyl)-N-(6-(2-(3-fluoropyridin-2-yl)-2-methylpropionyl)pyridin-3-yl)acetamide] yielded an IC50 of 1 to 10 nM. For `CCS(=O)(=O)c1ccc(CC(=O)Nc2ccc(C(=O)C3(c4ccccn4)CC3)nc2)cc1` [Compound I-45, 2-(4-(ethylsulfonyl)phenyl)-N-(6-(1-(pyridin-2-yl)cyclopropane-1-carbonyl)pyridin-3-yl)acetamide] the value was 100 to 1000 nM; for `CCS(=O)(=O)c1ccc(CC(=O)Nc2ccc(C(=O)C3(c4ccccn4)CCC3)nc2)cc1` [Compound I-46, 2-(4-(ethylsulfonyl)phenyl)-N-(6-(1-(pyridin-2-yl)cyclobutane-1-carbonyl)pyridin-3-yl)acetamide], 10 to 50 nM. `CNS(=O)(=O)c1ccc(CC(=O)Nc2ccc(C(=O)C(C)(C)c3ccc(F)c(Cl)c3)nc2)cc1` [Compound I-47] returned an IC50 of 1 to 10 nM. `CCS(=O)(=O)c1ccc(CC(=O)Nc2ccc(C(=O)C(C)(C)c3ccc(C)nc3)nc2)cc1` [Compound I-48, 2-(4-(ethylsulfonyl)phenyl)-N-(6-(2-methyl-2-(6-methylpyridin-3-yl)propionyl)pyridin-3-yl)acetamide] showed an IC50 of 50 to 100 nM. Next, `CCS(=O)(=O)c1ccc(CC(=O)Nc2ccc(C(=O)C(C)(C)c3ccc(C(F)(F)F)nc3)nc2)cc1` [Compound I-50]: 50 to 100 nM; `CCS(=O)(=O)c1ccc(CC(=O)Nc2ccc(C(=O)C(C)(C)c3ccnc(C(F)(F)F)c3)nc2)cc1` [Compound I-52]: 1 to 10 nM. For `CCS(=O)(=O)c1ccc(CC(=O)Nc2ccc(C(=O)C3(c4ccccn4)CC(F)(F)C3)nc2)cc1` [Compound I-54, N-(6-(3,3-difluoro-1-(pyridin-2-yl)cyclobutane-1-carbonyl)pyridin-3-yl)-2-(4-(ethylsulfonyl)phenyl)acetamide] the value was 1 to 10 nM; for `CCS(=O)(=O)c1ccc(CC(=O)Nc2ccc(C(=O)C(C)(C)c3cnc(C)nc3)nc2)cc1` [Compound I-55], 100 to 1000 nM.

`CCS(=O)(=O)c1ccc(CC(=O)Nc2ccc(C(=O)C(C)(C)c3nc(C)c(C)o3)nc2)cc1` [Compound I-56, N-(6-(2-(4,5-dimethyloxazol-2-yl)-2-methylpropionyl)pyridin-3-yl)-2-(4-(ethylsulfonyl)phenyl) acetamide] registered an IC50 of 10 to 50 nM.

Consider `CCS(=O)(=O)c1ccc(CC(=O)Nc2ccc(C(=O)C(C)(C)c3cccc(C)n3)nc2)cc1` [Compound I-57], for which the IC50 is 1 to 10 nM. For `CCS(=O)(=O)c1ccc(CC(=O)Nc2ccc(C(=O)C(C)(C)c3cc(Br)ccn3)nc2)cc1` [Compound I-58, N-(6-(2-(4-bromopyridin-2-yl)-2-methylpropionyl)pyridin-3-yl)-2-(4-(ethylsulfonyl)phenyl)acetamide] the value was 1 to 10 nM.

`CCS(=O)(=O)c1ccc(CC(=O)Nc2ccc(C(=O)C(C)(C)c3ncc(C)cn3)nc2)cc1` [Compound I-59, 2-(4-(ethylsulfonyl)phenyl)-N-(6-(2-methyl-2-(5-methylpyrimidin-2-yl)propionyl)pyridin-3-yl) acetamide] returned an IC50 of 10 to 50 nM. For `CCS(=O)(=O)c1ccc(CC(=O)Nc2ccc(C(=O)C3(c4cnn(C)c4)CC3)nc2)cc1` [Compound I-60, 2-(4-(ethylsulfonyl)phenyl)-N-(6-(1-(1-methyl-1H-pyrazol-4-yl)cyclopropane-1-carbonyl)pyridin-3-yl)acetamide] the value was 100 to 1000 nM; for `CCS(=O)(=O)c1ccc(CC(=O)Nc2ccc(C(=O)C(C)(C)c3cccc(F)n3)nc2)cc1` [Compound I-61], 1 to 10 nM; for `CCS(=O)(=O)c1ccc(CC(=O)Nc2ccc(C(=O)C(C)(C)c3nc(C)co3)nc2)cc1` [Compound I-62], 50 to 100 nM.

With `CNS(=O)(=O)c1ccc(CC(=O)Nc2ccc(C(=O)C(C)(C)c3ccccn3)nc2)cc1` [Compound I-63, N-(6-(2-methyl-2-(pyridin-2-yl)propionyl)pyridin-3-yl)-2-(4-(N-methylsulfamoyl)phenyl)acetamide], the half-maximal inhibitory concentration (IC50) lay in the range of 10 to 50 nM.

Consider `CN(C)S(=O)(=O)c1ccc(CC(=O)Nc2ccc(C(=O)C(C)(C)c3ccccn3)nc2)cc1` [Compound I-64, 2-(4-(N,N-dimethylsulfamoyl)phenyl)-N-(6-(2-methyl-2-(pyridin-2-yl)propionyl)pyridin-3-yl)acetamide], for which the IC50 is greater than 1000 nM.

`CCS(=O)(=O)c1ccc(CC(=O)Nc2ccc(C(=O)C(C)(C)c3cccc(C#N)n3)nc2)cc1` [Compound I-65] showed an IC50 of 1 to 10 nM. Take `CCS(=O)(=O)c1ccc(CC(=O)Nc2ccc(C(=O)C3(c4ccc(F)cc4)CC(F)(F)C3)nc2)cc1` [Compound I-66]: the IC50 lay in the range of 1 to 10 nM. Next, `CN(C)S(=O)(=O)c1ccc(CC(=O)Nc2ccc(C(=O)C3(c4ccc(F)cc4)CC(F)(F)C3)nc2)cc1` [Compound I-67]: 100 to 1000 nM.

`CCS(=O)(=O)c1ccc(CC(=O)Nc2ccc(C(=O)C3(c4ccc(F)cn4)CC3)nc2)cc1` [Compound I-68, 2-(4-(ethylsulfonyl)phenyl)-N-(6-(1-(5-fluoropyridin-2-yl)cyclopropane-1-carbonyl)pyridin-3-yl)acetamide] had an IC50 of 100 to 1000 nM.

Compound `CCC(C(=O)c1ccc(NC(=O)Cc2ccc(S(=O)(=O)CC)cc2)cn1)c1ccccn1` (centres unmarked) [Compound I-69] yielded an IC50 of 10 to 50 nM.

`CCS(=O)(=O)c1ccc(CC(=O)Nc2ccc(C(=O)C(C)(C)c3ccccn3)cn2)cc1` [Compound I-71, 2-(4-(ethylsulfonyl)phenyl)-N-(5-(2-methyl-2-(pyridin-2-yl)propionyl)pyridin-2-yl)acetamide] yielded a half-inhibitory concentration (IC50) of 50 to 100 nM. For `CCS(=O)(=O)c1ccc(CC(=O)Nc2ccc(C(=O)C(C)(C)c3cn(C)cn3)nc2)cc1` [Compound I-72, 2-(4-(ethylsulfonyl)phenyl)-N-(6-(2-methyl-2-(1-methyl-1H-imidazol-4-yl)propionyl)pyridin-3-yl)acetamide] the value was 50 to 100 nM; for `CCS(=O)(=O)c1ccc(CC(=O)Nc2ccc(C(=O)C(C)c3ccccn3)nc2)cc1` (centres unmarked) [Compound I-73, 2-(4-(ethylsulfonyl)phenyl)-N-(6-(2-(pyridin-2-yl)propanoyl)pyridin-3-yl)acetamide], 10 to 50 nM; for `CCS(=O)(=O)c1ccc(CC(=O)Nc2ccc(C(=O)C(c3ccccn3)C(C)C)nc2)cc1` (centres unmarked) [Compound I-74], 10 to 50 nM.

A word on the IC50: it is the concentration that gives 50% inhibition. A low value points to higher potency.
